Reference: US20080021004A1, “Sapogenin derivatives and their use in the treatment of cognitive dysfunction” (PHYTOPHARM PLC, priority 1999, published 2008)

System: m2 receptors on CHO cells
Test: Expression of m2 receptors on transfected CHO cells (tritiated QNB binding)
Assay type: cell-based, human
Details: DMSO control
Excerpt: Sapogenin derivatives of the present invention have also been tested for activity in a number of in-vitro assays. The assays/experiments that were considered of key importance in determining possible activity in the elevation of membrane bound receptor numbers were as follows: • Chinese hamster ovary (CHO) cells transfected with the DNA fragment coding for a muscarinic receptor. The cell line used for the majority of the experiments was a cell line expressing the m2 receptor.
The effects of various compounds on the expression of m2 receptors on CHO cells transfected with DNA for the m2 receptor were investigated. Receptor numbers were assayed using tritiated QNB binding and subtracting non-specific binding. Compounds were dissolved in DMSO and DMSO was used as a control. Compounds were tested at a range of final concentrations. Compounds were also tested in the presence and absence of tamoxifen to try to distinguish an oestrogen receptor mediated mechanism.
Compounds are active when the effect on receptor expression given as a percentage increase compared to control is more than 15%.

## CC1C(=O)OC2CC3C4CC[C@H]5CC(O)CC[C@]5(C)C4CC[C@]3(C)C21 (stereo partly shown)
Molar concentration 10^−5
  Activity (effect on expression of m2 receptors, percentage increase compared to control): Not Active

## CC1CCC2(OC1)OC1CC3C4CC[C@@H]5CC(O)[C@H](O)C[C@]5(C)C4CC[C@]3(C)C1C2C (stereo partly shown)
Molar concentration 10^−5
  Activity (effect on expression of m2 receptors, percentage increase compared to control): Not Active

## CC1CCC2(OC1)OC1CC3C4CC[C@@H]5CC(O)CC[C@]5(C)C4C(=O)C[C@]3(C)C1C2C (stereo partly shown)
Molar concentration 10^−5
  Activity (effect on expression of m2 receptors, percentage increase compared to control): Not Active

## CC1CCC2(OC1)OC1CC3C4CC=C5CC(O)CC[C@]5(C)C4CC[C@]3(C)C1C2C (stereo partly shown)
Molar concentration 10^−5
  Activity (effect on expression of m2 receptors, percentage increase compared to control): Not Active Not Active
Molar concentration 10^−6
  Activity (effect on expression of m2 receptors, percentage increase compared to control): Not Active Not Active

## CC(CO)CCCC(C)C1C(O)CC2C3CC[C@H]4CC(O)CC[C@]4(C)C3CC[C@@]21C (stereo partly shown)
Molar concentration 10^−5
  Activity (effect on expression of m2 receptors, percentage increase compared to control): Active

## CC1CCC2(OC1)OC1CC3C4CC=C5CC(O)C[C@@H](O)[C@]5(C)C4CC[C@]3(C)C1C2C (stereo partly shown)
Molar concentration 10^−5
  Activity (effect on expression of m2 receptors, percentage increase compared to control): Not Active Not Active
Molar concentration 10^−6
  Activity (effect on expression of m2 receptors, percentage increase compared to control): Not Active Not Active

## CC1CCC2(OC1)OC1CC3C4CC[C@H]5CC(O)CC[C@]5(C)C4CC[C@]3(C)C1C2C (stereo partly shown)
Molar concentration 10^−5
  Activity (effect on expression of m2 receptors, percentage increase compared to control): Not Active Not Active
Molar concentration 10^−6
  Activity (effect on expression of m2 receptors, percentage increase compared to control): Not Active Not Active
